According to US10457667B2, “Indolin-2-one derivatives” (Hoffmann-La Roche Inc., priority 2015, dated 2019):

What was measured:
[1] = biological target: T1, mouse ENT-1 transporter (Mus musculus, UniProt Q9JIM1); assay: ENT1 adenosine uptake inhibition ([3H]-adenosine transport activity); format: cell-based; conditions: stable cells expressing mouse ENT-1; [2,8-3H]-adenosine 6 nM, 20 min
T1 construct: expressed in transfected cells
T1 sequence (Q9JIM1 1-460): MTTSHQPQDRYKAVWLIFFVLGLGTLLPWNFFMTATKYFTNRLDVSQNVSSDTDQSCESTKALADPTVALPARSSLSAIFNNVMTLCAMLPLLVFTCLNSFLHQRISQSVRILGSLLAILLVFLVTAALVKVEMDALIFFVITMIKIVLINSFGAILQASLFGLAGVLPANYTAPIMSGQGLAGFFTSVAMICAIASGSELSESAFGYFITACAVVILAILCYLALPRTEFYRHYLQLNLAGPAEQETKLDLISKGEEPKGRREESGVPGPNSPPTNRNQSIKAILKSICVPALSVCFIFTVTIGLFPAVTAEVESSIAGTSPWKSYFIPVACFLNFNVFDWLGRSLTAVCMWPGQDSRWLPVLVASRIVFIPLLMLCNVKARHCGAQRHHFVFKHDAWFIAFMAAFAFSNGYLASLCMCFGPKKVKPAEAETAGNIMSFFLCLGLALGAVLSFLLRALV
Experimental: To measure adenosine transport activity of ENT-1 mammalian cells, stable cells expressing the mouse ENT-1 transporter were plated on day 1 in 96-well culture plates at the density of 60,000 cells/well, in complete DMEM/F12 medium supplemented with glutamax, 10% FBS and 10 μg/ml puromycin. On day 2, the medium was aspirated and the cells were washed twice with uptake buffer (10 mM Hepes-Tris, pH 7.4 containing 150 mM NaCl, 1 mM CaCl2, 2.5 mM KCl, 2.5 mM MgSO4, 10 mM D-glucose) (UB). For inhibition experiments, cells were then incubated at RT with various concentrations of compounds with 1% DMSO final. Non-specific uptake was defined in the presence of 10 μM S-(4-Nitrobenzyl)-6-thioinosine (NBTI, Sigma Cat #N2255).
A solution containing [2,8-^3H]-adenosine 6 nM (40 Ci/mmol, American Radiolabeled chemicals Inc, Cat #ART 0287A) was then immediately added to the wells. The plates were then incubated for 20 min with gentle shaking and the reaction was stopped by aspiration of the mixture and washing (three times) with ice-cold UB. The cells were lysed by the addition of scintillation liquid, shaken 3 hours and the radioactivity in the cells was estimated using a microplates scintillation counter (TopCount NXT, Packard).

[2] = system: L-687,414-induced hyperlocomotion; assay: L-687,414-induced hyperlocomotion; format: in vivo, mouse; conditions: mice; dose 30 mg/kg ip, 15 min before s.c. 50 mg/kg L-687,414
Experimental: The described compounds of formula I reduce L-687,414-induced hyperlocomotion. This was assessed by using a computerized Digiscan 16 Animal Activity Monitoring System (Omnitech Electronics, Columbus, Ohio) to quantify locomotor activity. Animals were kept under a 12 h light/dark cycle and experiments were performed during the light period. Each activity monitoring chamber consisted of a Plexiglas box (41×41×28 cm; W×L×H) with sawdust bedding on the floor surrounded by invisible horizontal and vertical infrared sensor beams. The test boxes were divided by a Plexiglas cross providing each mouse with 20×20 cm of moving space. Cages were connected to a Digiscan Analyzer linked to a computer that constantly collected the beam status information. Records of photocell beam interruptions for individual animals were taken every 5 min over the duration of the experimental session and the sum of the first 6 periods was used as the final parameter. At least 8 mice were used in each treatment group. Compounds were administered i.p 15 min before a s.c. injection of 50 mg/kg of L-687,414. […] Horizontal activity was then recorded for a 30-min time period. The % inhibition of L-687,414-induced hyperlocomotion was calculated according to the equation: ((Veh+L−687,414 horizontal activity−drug+L−687,414 horizontal activity)/Veh+L−687,414 horizontal activity)×100 […]

[3] = system: behaviors of compound-treated mice; assay: SmartCube behavioral signature similarity analysis; format: in vivo, mouse
From the text: authors described that hyperlocomotion induced by L-687,414 was inhibited by a series of known antipsychotic drugs. […] These findings predict antipsychotic activity for the present compounds, making them useful for the treatment of positive (psychosis) and negative symptoms of schizophrenia, substance abuse, alcohol and drug addiction, obsessive-compulsive disorders, cognitive impairment, bipolar disorders, mood disorders, major depression, resistant depression, anxiety disorders, Alzheimer's disease, autism, Parkinson's disease, chronic pain, borderline personality disorder, sleep disturbances, chronic fatigue syndrome, stiffness, antiinflammatory effects in arthritis and balance problems, epilepsy and neurodevelopmental disorders with co morbid epilepsy. In addition to the reversal of L-687,414 induced hyperlocomotion experiment as described above, some compounds of the present invention have been tested in SmartCube®, an automated system in which the behaviors of compound-treated mice in response to multiple challenges are captured by digital video and analyzed with computer algorithms (Roberds et al., Frontiers in Neuroscience, 2011, Vol. 5, Art. 103, 1-4; Vadim Alexandrov, Dani Brunner, Taleen Hanania, Emer Leahy Eur. J. Pharmacol. 2015, 750, 82-99). In this way, the neuro-pharmacological effects of a test compound can be predicted by similarity to major classes of compounds, such as antipsychotics, anxiolytics and antidepressants.
SmartCube® was used to compare the behavioral signature of a test compound to a database of behavioral signatures obtained from a large set of clinically approved reference drugs, grouped per indications. In this way, the neuro-pharmacological effects of a test compound can be predicted by similarity to major classes of compounds, such as antipsychotics, anxiolytics and antidepressants. This approach is ideally suited to screen collections of existing drugs or drug candidates with previously unknown neuropharmacology, which could expedite the development of new and unexpected treatments for psychiatric disorders.
Some compounds of the present invention were injected i.p. at different doses 15 minutes before the test. At least 8 mice were used in each treatment group. Digital videos of the subjects were processed with computer vision algorithms to extract over 2000 dependent measures including frequency and duration of many different behavioral states. The results of the classifications are presented as bar charts for each compound and dose (mg/kg), the Y-axis indicates the relative probability that the test compound will show efficacy in the specific CNS indication.
Compounds of the present invention show similar signatures to those of atypical antipsychotics. An independent analysis was performed on the unclassified data to determine the similarity of the example compounds to active doses of known atypical antipsychotics. For this analysis, we use discrimination rate as the measure of separability between the two drugs, i.e. one drug's “distinguishability” from another. A rate equal to 50% (or 0.5) corresponds to zero distinguishability. […] In most cases, the example compounds show a similarity to risperidone, clozapine and olanzapine with a discrimination rate of ≤0.70.

[4] = SmartCube, test compound at 3 mg/kg i.p., rate of 0.70 or lower = similar

Structure (SMILES): COc1cncc(N2C(=O)C(C)(C)c3ccc(-c4cnc(C)nc4)cc32)c1 [Example 2, 1-(5-Methoxypyridin-3-yl)-3,3-dimethyl-6-(2-methylpyrimidin-5-yl)indolin-2-one]
- IC50 [1]: 438 nM
- Inhibition, ip of L-687,414-induced hyperlocomotion [2]: 93.6%
- discrimination rate vs Clozapine (1.0 mg/kg) [3, 4]: 0.58
- discrimination rate vs Olanzapine (0.25 mg/kg) [3, 4]: 0.68
- discrimination rate vs Risperidone (0.06 mg/kg) [3, 4]: 0.51
- SmartCube behavioral signature classification ([3]; mice, result in words): similarity to atypical antipsychotics
